The IC50 is the concentration needed to halve the response being measured. Higher therefore signals lower potency.

For 26 molecules, IC50 results are on record in patent US9346798B2, “Dihydrobenzoxazine and tetrahydroquinoxaline sodium channel inhibitors” (AMGEN INC., priority 2012, dated 2016).

What all share (format): cell-based
Data set [1] addresses T1, Nav 1.7 (Homo sapiens (Human), UniProt Q15858). The data set can be described thus: Nav 1.7 in vitro assay, IonWorks Quattro (IWQ) population patch-clamp. The conditions noted are these: HEK 293 cells stably transfected with Nav 1.7; 26th pulse to -20 mV.
Data set [2] addresses T1, Nav 1.7. The data set is described as follows: Nav 1.7 in vitro PX assay, PatchXpress whole cell voltage clamp. The conditions noted are these: HEK 293 cells stably transfected with human Nav1.7; partially inactivated state (20 to 50% inactivation). Summed up: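 HEK293 cells stably expressing human Nav1.7, whole-cell voltage clamp at a holding potential giving 20–50% inactivation; currents elicited by 20 msec pulses to −10 mV at 0.1 Hz.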

The target in data set [3] is Nav 1.5 (Homo sapiens (Human), UniProt Q14524). The data set is described as follows: Nav 1.5 in vitro assay, IonWorks Quattro (IWQ) population patch-clamp. The conditions noted are these: HEK 293 cells stably transfected with Nav 1.5; 26th pulse to -20 mV.
Sequence of Nav 1.5 (Q14524 whole entry): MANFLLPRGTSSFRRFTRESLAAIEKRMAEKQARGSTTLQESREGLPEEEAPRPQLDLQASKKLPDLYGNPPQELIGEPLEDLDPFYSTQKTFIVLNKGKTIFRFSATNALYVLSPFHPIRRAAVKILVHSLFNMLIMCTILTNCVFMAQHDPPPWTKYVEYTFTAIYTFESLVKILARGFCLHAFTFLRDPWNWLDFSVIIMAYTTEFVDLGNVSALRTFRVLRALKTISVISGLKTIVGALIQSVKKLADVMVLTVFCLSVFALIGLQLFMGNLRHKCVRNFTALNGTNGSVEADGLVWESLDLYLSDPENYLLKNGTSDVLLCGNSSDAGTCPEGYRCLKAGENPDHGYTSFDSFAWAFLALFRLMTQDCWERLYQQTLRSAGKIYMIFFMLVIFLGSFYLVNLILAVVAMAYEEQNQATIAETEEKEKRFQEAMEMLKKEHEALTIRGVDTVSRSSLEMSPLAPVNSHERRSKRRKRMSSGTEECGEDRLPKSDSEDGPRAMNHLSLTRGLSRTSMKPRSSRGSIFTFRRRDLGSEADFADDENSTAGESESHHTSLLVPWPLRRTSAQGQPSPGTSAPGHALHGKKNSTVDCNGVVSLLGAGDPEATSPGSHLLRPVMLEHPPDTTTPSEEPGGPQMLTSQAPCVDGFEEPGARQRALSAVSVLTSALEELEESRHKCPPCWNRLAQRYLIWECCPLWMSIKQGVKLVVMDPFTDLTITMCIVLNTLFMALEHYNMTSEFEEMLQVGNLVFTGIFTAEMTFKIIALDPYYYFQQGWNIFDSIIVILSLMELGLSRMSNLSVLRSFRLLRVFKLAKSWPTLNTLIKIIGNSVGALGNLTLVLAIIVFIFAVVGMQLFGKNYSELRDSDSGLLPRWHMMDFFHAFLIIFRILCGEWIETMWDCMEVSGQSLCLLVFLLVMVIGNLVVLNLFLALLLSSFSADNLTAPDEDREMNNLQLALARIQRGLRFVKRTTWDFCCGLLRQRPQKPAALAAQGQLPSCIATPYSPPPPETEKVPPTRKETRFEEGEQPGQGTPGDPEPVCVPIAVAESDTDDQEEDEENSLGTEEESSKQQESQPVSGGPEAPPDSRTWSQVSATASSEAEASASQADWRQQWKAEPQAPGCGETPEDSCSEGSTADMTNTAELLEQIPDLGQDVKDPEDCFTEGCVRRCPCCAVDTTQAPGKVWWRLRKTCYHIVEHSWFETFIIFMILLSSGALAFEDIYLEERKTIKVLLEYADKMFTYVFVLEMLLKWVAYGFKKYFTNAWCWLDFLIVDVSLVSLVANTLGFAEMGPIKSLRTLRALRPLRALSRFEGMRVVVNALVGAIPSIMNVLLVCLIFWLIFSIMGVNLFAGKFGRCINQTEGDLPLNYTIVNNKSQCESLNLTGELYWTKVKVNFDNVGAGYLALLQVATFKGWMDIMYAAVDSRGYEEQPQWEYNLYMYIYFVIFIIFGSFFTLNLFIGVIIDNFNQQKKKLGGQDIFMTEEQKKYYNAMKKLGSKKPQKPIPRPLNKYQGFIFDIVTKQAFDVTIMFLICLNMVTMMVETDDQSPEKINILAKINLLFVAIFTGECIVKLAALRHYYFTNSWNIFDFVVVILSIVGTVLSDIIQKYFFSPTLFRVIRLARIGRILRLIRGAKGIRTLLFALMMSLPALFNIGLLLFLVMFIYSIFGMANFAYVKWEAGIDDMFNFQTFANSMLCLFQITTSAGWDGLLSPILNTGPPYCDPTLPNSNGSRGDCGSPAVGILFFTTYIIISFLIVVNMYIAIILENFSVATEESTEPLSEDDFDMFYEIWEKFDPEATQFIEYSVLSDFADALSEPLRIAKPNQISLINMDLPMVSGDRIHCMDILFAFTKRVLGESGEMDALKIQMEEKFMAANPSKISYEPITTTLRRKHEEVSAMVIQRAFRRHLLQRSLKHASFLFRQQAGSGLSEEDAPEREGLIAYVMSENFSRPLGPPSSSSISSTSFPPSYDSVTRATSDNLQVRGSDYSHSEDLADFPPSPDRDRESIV

T1 sequence (Q15858 whole entry): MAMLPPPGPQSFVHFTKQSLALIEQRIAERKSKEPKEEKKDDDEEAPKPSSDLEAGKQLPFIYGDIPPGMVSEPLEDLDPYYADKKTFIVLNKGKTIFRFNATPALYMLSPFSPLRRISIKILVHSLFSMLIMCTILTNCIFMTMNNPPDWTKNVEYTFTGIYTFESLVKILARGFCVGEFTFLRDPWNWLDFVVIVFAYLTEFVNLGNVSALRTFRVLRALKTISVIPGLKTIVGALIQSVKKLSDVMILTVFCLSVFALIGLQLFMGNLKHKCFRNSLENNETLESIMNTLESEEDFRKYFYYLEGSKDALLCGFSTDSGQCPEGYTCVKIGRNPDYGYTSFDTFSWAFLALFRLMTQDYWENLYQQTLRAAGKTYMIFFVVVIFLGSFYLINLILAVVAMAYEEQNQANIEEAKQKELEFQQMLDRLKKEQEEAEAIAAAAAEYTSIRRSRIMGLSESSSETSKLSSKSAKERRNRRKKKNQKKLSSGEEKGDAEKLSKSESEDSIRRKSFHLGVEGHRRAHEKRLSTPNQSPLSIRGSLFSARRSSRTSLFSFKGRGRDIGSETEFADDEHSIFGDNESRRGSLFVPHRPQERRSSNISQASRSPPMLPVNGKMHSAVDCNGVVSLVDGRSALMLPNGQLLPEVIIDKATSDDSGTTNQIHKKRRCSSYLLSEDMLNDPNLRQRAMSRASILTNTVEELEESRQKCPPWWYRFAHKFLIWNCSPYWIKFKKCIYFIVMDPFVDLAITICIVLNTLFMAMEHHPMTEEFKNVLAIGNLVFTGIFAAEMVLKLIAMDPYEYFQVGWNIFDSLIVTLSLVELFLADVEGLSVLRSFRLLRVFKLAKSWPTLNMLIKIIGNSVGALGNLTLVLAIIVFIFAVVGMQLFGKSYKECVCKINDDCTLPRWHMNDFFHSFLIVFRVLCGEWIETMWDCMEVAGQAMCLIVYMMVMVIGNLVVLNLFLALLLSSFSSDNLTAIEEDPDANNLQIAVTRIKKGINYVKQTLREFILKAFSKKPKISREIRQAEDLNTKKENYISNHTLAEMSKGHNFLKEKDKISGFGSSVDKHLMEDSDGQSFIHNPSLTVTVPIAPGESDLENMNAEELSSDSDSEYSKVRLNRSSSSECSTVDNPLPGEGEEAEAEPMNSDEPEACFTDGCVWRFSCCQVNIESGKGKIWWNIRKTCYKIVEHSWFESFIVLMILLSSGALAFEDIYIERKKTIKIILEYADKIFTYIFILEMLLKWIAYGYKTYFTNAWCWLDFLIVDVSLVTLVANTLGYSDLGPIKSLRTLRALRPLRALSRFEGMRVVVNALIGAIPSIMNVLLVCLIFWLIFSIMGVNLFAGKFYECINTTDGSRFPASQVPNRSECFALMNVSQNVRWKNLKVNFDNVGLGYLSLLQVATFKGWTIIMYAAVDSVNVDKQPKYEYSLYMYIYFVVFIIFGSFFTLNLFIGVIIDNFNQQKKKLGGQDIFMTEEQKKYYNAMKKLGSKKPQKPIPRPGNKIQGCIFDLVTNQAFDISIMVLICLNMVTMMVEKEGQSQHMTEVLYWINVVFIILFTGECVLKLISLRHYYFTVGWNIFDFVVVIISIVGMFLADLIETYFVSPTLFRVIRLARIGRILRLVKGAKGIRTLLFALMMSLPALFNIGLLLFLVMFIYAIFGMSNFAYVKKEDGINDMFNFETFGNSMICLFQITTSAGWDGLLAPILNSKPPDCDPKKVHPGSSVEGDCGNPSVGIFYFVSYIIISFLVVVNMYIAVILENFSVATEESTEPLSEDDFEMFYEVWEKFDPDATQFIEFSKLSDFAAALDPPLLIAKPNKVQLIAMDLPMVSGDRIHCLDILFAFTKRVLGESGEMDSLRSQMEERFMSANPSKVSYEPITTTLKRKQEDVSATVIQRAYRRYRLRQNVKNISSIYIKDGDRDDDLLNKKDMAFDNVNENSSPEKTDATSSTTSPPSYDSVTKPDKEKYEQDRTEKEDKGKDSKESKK

On to `O=S(=O)(Nc1nccs1)c1ccc2c(c1)OCCN2c1ccccc1-c1ccncc1` [Example 147, 4-(2-(Pyridin-4-yl)phenyl)-N-(thiazol-2-yl)-3,4-dihydro-2H-benzo[b][1,4]oxazine-7-sulfonamide], for which the IC50 in data set [1] is 0.107 µM; in data set [2], 1.99 µM; in data set [3], more than 10 µM.

Consider `Cn1nccc1-c1ccccc1N1CCOc2cc(S(=O)(=O)Nc3nccs3)ccc21` [Example 148, 4-(2-(1-Methyl-1H-pyrazol-5-yl)phenyl)-N-(thiazol-2-yl)-3,4-dihydro-2H-benzo[b][1,4]oxazine-7-sulfonamide], for which the figures for the IC50 in data set [1], in data set [2] and in data set [3] were 0.0665 µM, 0.782 µM and more than 10 µM, respectively.

Regarding `O=S(=O)(Nc1nccs1)c1ccc2c(c1)OCCN2c1ccccc1C1CCOCC1` [Example 149, 4-(2-(Tetrahydro-2H-Pyran-4-Yl)Phenyl)-N-(Thiazol-2-Yl)-3,4-Dihydro-2H-Benzo[B][1,4]Oxazine-7-Sulfonamide], the figures for the IC50 in data set [1], in data set [2] and in data set [3] were 0.198 µM, 2.55 µM and more than 10 µM, respectively.

On to `COc1cc(F)ccc1N1CCOc2cc(S(=O)(=O)Nc3nccs3)ccc21` [Example 150, 4-(4-Fluoro-2-methoxyphenyl)-N-(thiazol-2-yl)-3,4-dihydro-2H-benzo[b][1,4]oxazine-7-sulfonamide], for which the IC50 in data set [1] stood at 0.017 µM; in data set [2], 0.192 µM; in data set [3], 5.58 µM.

For `COc1ccc(F)cc1N1CCOc2cc(S(=O)(=O)Nc3nccs3)ccc21` [Example 151, 4-(5-Fluoro-2-methoxyphenyl)-N-(thiazol-2-yl)-3,4-dihydro-2H-benzo[b][1,4]oxazine-7-sulfonamide], the values for the IC50 in data set [1], in data set [2] and in data set [3] were 0.0135 µM, 0.158 µM and more than 10 µM, respectively.

Regarding `N#Cc1cc(C(F)(F)F)ccc1N1CCOc2cc(S(=O)(=O)Nc3cscn3)ccc21` [Example 152, 4-(2-cyano-4-(trifluoromethyl)phenyl)-N-(thiazol-4-yl)-3,4-dihydro-2H-benzo[b][1,4]oxazine-7-sulfonamide], the IC50 in data set [1] was determined as 1.63 µM; in data set [2], 2.78 µM; in data set [3], 9.42 µM.

Turning to `O=S(=O)(Nc1nccs1)c1ccc2c(c1)OCCN2c1ccc(Cl)c(F)c1` [Example 155, 4-(4-Chloro-3-Fluorophenyl)-N-(Thiazol-2-Yl)-3,4-Dihydro-2H-Benzo[B][1,4]Oxazine-7-Sulfonamide 2,2,2-Trifluoroacetate], the values for the IC50 in data set [1], in data set [2] and in data set [3] were 2.37 µM, 12.6 µM and more than 10 µM, respectively.

Take `Cc1cc(N2CCOc3cc(S(=O)(=O)Nc4nccs4)ccc32)ccc1Cl` [Example 156, 4-(4-Chloro-3-Methylphenyl)-N-(Thiazol-2-Yl)-3,4-Dihydro-2H-Benzo[B][1,4]Oxazine-7-Sulfonamide 2,2,2-Trifluoroacetate]: the values for the IC50 in data set [1], in data set [2] and in data set [3] were 2.28 µM, 2.6 µM and 3.93 µM, respectively.

With `COc1cnccc1N1CCOc2cc(S(=O)(=O)Nc3nccs3)ccc21` [Example 158, 4-(3-methoxypyridin-4-yl)-N-(thiazol-2-yl)-3,4-dihydro-2H-benzo[b][1,4]oxazine-7-sulfonamide], the IC50 in data set [1] was 1.49 µM; in data set [2], 4.51 µM; in data set [3] it was more than 10 µM.

With `N#Cc1cccc(F)c1N1CCOc2cc(S(=O)(=O)Nc3nccs3)ccc21` [Example 159, 4-(2-Cyano-6-Fluorophenyl)-N-(Thiazol-2-Yl)-3,4-Dihydro-2H-Benzo[B][1,4]Oxazine-7-Sulfonamide], the results for the IC50 in data set [1], in data set [2] and in data set [3] were 1.42 µM, 8.15 µM and more than 10 µM, respectively.

With `O=S(=O)(Nc1nccs1)c1ccc2c(c1)OCCN2c1ccccc1` [Example 165, 4-phenyl-N-(thiazol-2-yl)-3,4-dihydro-2H-benzo[b][1,4]oxazine-7-sulfonamide], the half-maximal inhibitory concentration (IC50) is 0.7 µM in data set [1], 3.75 µM in data set [2] and more than 10 µM in data set [3].

Regarding `O=S(=O)(Nc1nccs1)c1ccc2c(c1)OCCN2c1cccc2cccnc12` [Example 166, 4-(Quinolin-8-Yl)-N-(Thiazol-2-Yl)-3,4-Dihydro-2H-Benzo[B][1,4]Oxazine-7-Sulfonamide 2,2,2-Trifluoroacetate], the values for the half-maximal inhibitory concentration (IC50) in data set [1], in data set [2] and in data set [3] were 0.683 µM, 11.1 µM and more than 10 µM, respectively.

In the case of `N#Cc1ccc(N2CCOc3cc(S(=O)(=O)Nc4nccs4)ccc32)cc1OC(F)(F)F` [Example 167, 4-(4-cyano-3-(trifluoromethoxy)phenyl)-N-(thiazol-2-yl)-3,4-dihydro-2H-benzo[b][1,4]oxazine-7-sulfonamide], the half-maximal inhibitory concentration (IC50) was 0.652 µM in data set [1], 6.15 µM in data set [2] and more than 10 µM in data set [3].

As to `Cc1ccc(C(C)C)c(N2CCOc3cc(S(=O)(=O)Nc4nccs4)ccc32)c1` [Example 168, 4-(2-Isopropyl-5-Methylphenyl)-N-(Thiazol-2-Yl)-3,4-Dihydro-2H-Benzo[B][1,4]Oxazine-7-Sulfonamide 2,2,2-Trifluoroacetate], the IC50 in data set [1] is 0.643 µM; in data set [2], 3.25 µM; in data set [3], more than 10 µM.

With `O=S(=O)(Nc1nccs1)c1ccc2c(c1)OCCN2c1ccc(Cl)cc1F` [Example 170, 4-(4-Chloro-2-Fluorophenyl)-N-(Thiazol-2-Yl)-3,4-Dihydro-2H-Benzo[B][1,4]Oxazine-7-Sulfonamide 2,2,2-Trifluoroacetate], the IC50 was 0.401 µM in data set [1], 2.62 µM in data set [2] and more than 10 µM in data set [3].

For the molecule `O=S(=O)(Nc1nccs1)c1ccc2c(c1)OCCN2c1cccc(OC(F)F)c1` [Example 172, 4-(3-(Difluoromethoxy)Phenyl)-N-(Thiazol-2-Yl)-3,4-Dihydro-2H-Benzo[B][1,4]Oxazine-7-Sulfonamide 2,2,2-Trifluoroacetate], the IC50 in data set [1] is 0.244 µM; in data set [2], 0.936 µM; in data set [3], more than 10 µM.

Take `O=S(=O)(Nc1nccs1)c1ccc2c(c1)OCCN2c1cccc(C(F)(F)F)c1` [Example 173, N-(Thiazol-2-Yl)-4-(3-(Trifluoromethyl)Phenyl)-3,4-Dihydro-2H-Benzo[B][1,4]Oxazine-7-Sulfonamide 2,2,2-Trifluoroacetate]: the figures for the IC50 in data set [1], in data set [2] and in data set [3] were 0.236 µM, 1.65 µM and more than 10 µM, respectively.

For the molecule `N#CCc1cccc(N2CCOc3cc(S(=O)(=O)Nc4nccs4)ccc32)c1` [Example 174, 4-(3-(Cyanomethyl)Phenyl)-N-(Thiazol-2-Yl)-3,4-Dihydro-2H-Benzo[B][1,4]Oxazine-7-Sulfonamide 2,2,2-Trifluoroacetate], the figures for the IC50 in data set [1], in data set [2] and in data set [3] were 0.211 µM, 0.822 µM and 2.01 µM, respectively.

As for `N#Cc1cc(N2CCOc3cc(S(=O)(=O)Nc4nccs4)ccc32)ccc1F` [Example 175, 4-(3-Cyano-4-Fluorophenyl)-N-(Thiazol-2-Yl)-3,4-Dihydro-2H-Benzo[B][1,4]Oxazine-7-Sulfonamide 2,2,2-Trifluoroacetate], the IC50 in data set [1] is 0.202 µM; in data set [2] it was 1.39 µM; in data set [3], 5.08 µM.

For `N#Cc1cc(F)ccc1N1CCOc2cc(S(=O)(=O)Nc3nccs3)ccc21` [Example 177, 4-(2-cyano-4-fluorophenyl)-N-(thiazol-2-yl)-3,4-dihydro-2H-benzo[b][1,4]oxazine-7-sulfonamide], the IC50 in data set [1] was 0.178 µM; in data set [2] it was 1.49 µM; in data set [3], more than 10 µM.

Consider `Cc1ccc(Cl)cc1N1CCOc2cc(S(=O)(=O)Nc3nccs3)ccc21` [Example 178, 4-(5-Chloro-2-Methylphenyl)-N-(Thiazol-2-Yl)-3,4-Dihydro-2H-Benzo[B][1,4]Oxazine-7-Sulfonamide 2,2,2-Trifluoroacetate], for which the results for the IC50 in data set [1], in data set [2] and in data set [3] were 0.129 µM, 0.678 µM and 5.6 µM, respectively.

On to `O=S(=O)(Nc1nccs1)c1ccc2c(c1)OCCN2c1ccccc1OC(F)F` [Example 179, 4-(2-(Difluoromethoxy)Phenyl)-N-(Thiazol-2-Yl)-3,4-Dihydro-2H-Benzo[B][1,4]Oxazine-7-Sulfonamide 2,2,2-Trifluoroacetate], for which the IC50 in data set [1] amounted to 0.112 µM; in data set [2] it was 0.75 µM; in data set [3], 5.64 µM.

As to `O=S(=O)(Nc1nccs1)c1ccc2c(c1)OCCN2c1cc(Cl)ccc1Cl` [Example 180, 4-(2,5-Dichlorophenyl)-N-(Thiazol-2-Yl)-3,4-Dihydro-2H-Benzo[B][1,4]Oxazine-7-Sulfonamide 2,2,2-Trifluoroacetate], the IC50 in data set [1] worked out at 0.104 µM; in data set [2], 0.85 µM; in data set [3], 6.94 µM.

In the case of `COc1cc(C#N)ccc1N1CCOc2cc(S(=O)(=O)Nc3nccs3)ccc21` [Example 181, 4-(4-Cyano-2-Methoxyphenyl)-N-(Thiazol-2-Yl)-3,4-Dihydro-2H-Benzo[B][1,4]Oxazine-7-Sulfonamide 2,2,2-Trifluoroacetate], the IC50 in data set [1] was 0.0075 µM; in data set [2] it was 0.175 µM; in data set [3], more than 10 µM.

Regarding `O=S(=O)(Nc1nccs1)c1ccc2c(c1)OCCN2c1ccc(C(F)(F)F)cn1` [Example 183, N-(Thiazol-2-Yl)-4-(5-(Trifluoromethyl)Pyridin-2-Yl)-3,4-Dihydro-2H-Benzo[B][1,4]Oxazine-7-Sulfonamide], the values for the half-inhibitory concentration (IC50) in data set [1], in data set [2] and in data set [3] were 0.177 µM, 3.32 µM and more than 10 µM, respectively.

Consider `N#Cc1ccc(C(F)(F)F)cc1N1CCOc2cc(S(=O)(=O)Nc3nccs3)ccc21` [Example 184, 4-(2-Cyano-5-(Trifluoromethyl)Phenyl)-N-(Thiazol-2-Yl)-3,4-Dihydro-2H-Benzo[B][1,4]Oxazine-7-Sulfonamide], for which the IC50 in data set [1] was determined as 0.186 µM; in data set [2] it was 0.392 µM; in data set [3] it was 3.17 µM.
